From doi:10.1101/2025.02.17.637997, “Phosphorylation-State Modulated Binding of HSP70: Structural Insights and Compensatory Protein Engineering” (bioRxiv, 2025)

Experiments:
[1] = biological target: T1, CHIP-G132N (Homo sapiens, UniProt Q9UNE7, G132N); experiment: Biolayer interferometry, CHIP-G132N TPR; assay type: binding; details: BLI; kon; CHIP-G132N TPR towards pEEVD; Fig. S2
T1 construct: Recombinant CHIP-TPR constructs were recombinantly expressed using the pHis//2 CHIP-TPR (21–154) plasmid; His; made in house
T1 sequence (Q9UNE7 21-154 G132N): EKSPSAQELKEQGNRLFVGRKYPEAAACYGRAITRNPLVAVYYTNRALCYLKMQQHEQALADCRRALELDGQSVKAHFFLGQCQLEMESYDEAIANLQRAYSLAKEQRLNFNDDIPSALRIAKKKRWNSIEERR
Method: Bio-layer interferometry measured peptide binding using a BLItz instrument (FortéBio, Sartorius) with streptavidin (SA) sensors. Biotin-EEVD and biotin-pEEVD were solubilized in 20 mM HEPES, 150 mM NaCl, pH 7.0. Affinity measurements were made using the advanced kinetic protocol within the BLItz Pro system software. Biosensors were hydrated for ten minutes in assay buffer comprising 20 mM HEPES, 150 mM NaCl, 5 mM β-mercaptoethanol, pH 7.2. For each affinity measurement, a new, hydrated biosensor was placed on the BLItz tip, and the “Initial Baseline” step was completed by incubation for 30 seconds in 500 μl assay buffer in an opaque black microcentrifuge tube (Argos Technologies). Peptides were loaded during the “Loading Step” by incubating the tip in 4 μl of either peptide for 60 seconds. The “Baseline step” was then conducted by incubation for 30 seconds in 500 μl assay buffer in an opaque black microcentrifuge tube. The “Association step” was performed by incubating the tip in 4 μl of the appropriate TPR protein construct, at protein concentrations of 1 to 25 μM, in assay buffer in an opaque black microcentrifuge tube for 120 seconds. […] Affinities (Kd) were calculated by the BLItz Pro software as Kd=koff/kon, where koff and kon were determined by individual fits to the “dissociation step” and “association step,” respectively, for each run.

[2] = biological target: T2, CHIP TPR (residues 21–154) (Homo sapiens, UniProt Q9UNE7); experiment: Biolayer interferometry, CHIP TPR (21-154); assay type: binding; details: BLI; pEEVD vs EEVD; Fig. 2E
T2 construct: the extended TPR domain of CHIP (residues 21–154) using BLI; His; made in house
Excerpt: (§1) A complete list of vectors is listed in Table S1 and deposited at Addgene (pending ID). Plasmids were maintained and propagated in DH5-alpha E. coli and purified using the Miniprep plasmid kit (Qiagen) or Quantum Prep® Plasmid Midiprep Kit (Bio-Rad). We used the Q5 Site-Directed Mutagenesis Kit (NEB) or […] II XL (NC9045762, Agilent Technologies) site-directed mutagenesis kit for editing plasmids and validated via DNA sequencing. Lifetein or Genscript synthesized the peptides used in the study. […] The amino-terminal biotin-labeled HSP70 tail peptide (biotin-[…], termed as biotin-EEVD) and the amino-terminal biotin-labeled pT-HSP70 tail peptide (biotin-GSGSGP(pT)IEEVD, termed as biotin-pEEVD) were purchased (Lifetein). The peptides used for fluorescent polarization were N-FITC-Ahx-[…] (EEVD) or N-FITC-Ahx-GSGP(pT)IEEVD (pEEVD). Recombinant CHIP-TPR constructs were recombinantly expressed using the pHis//2 CHIP-TPR (21–154) plasmid and purified as previously described ([21]) and additional CHIP proteins were purified as previously described ([22]).
Bio-layer interferometry measured peptide binding using a BLItz instrument (FortéBio, Sartorius) with streptavidin (SA) sensors. […] Affinities (Kd) were calculated by the BLItz Pro software as Kd=koff/kon, where koff and kon were determined by individual fits to the “dissociation step” and “association step,” respectively, for each run.

[3] = system: CHIP-WT or CHIP-G132N; experiment: Fluorescence polarization, phosphorylated vs unmodified EEVD peptide; assay type: binding; details: FP, CHIP-WT or CHIP-G132N (Fig. 2B)
Excerpt: as §1
(§2) The N-terminally-labelled peptides were loaded into PCR reaction tubes at 2X (40 nM), with the final concentration being 20 nM. Recombinant CHIP constructs were added into the tubes at the indicated concentrations. […] The polarization reads were normalized to the dilution buffer. […]

[4] = system: CHIP TPR-UBOX; experiment: Fluorescence polarization, CHIP TPR-UBOX (CC deletion); assay type: binding; details: FP; Fig. 2C
Excerpt: as §1, §2

[5] = biological target: CHIP TPR-CC (Homo sapiens, UniProt Q9UNE7); experiment: Fluorescence polarization, CHIP TPR-CC fragment; assay type: binding; details: FP; Fig. 2C
Excerpt: as §1, §2

[6] = system: SmBiT-CHIP-G132N; experiment: NanoBiT live-cell interaction, HEK-293, SmBiT-CHIP-G132N; assay type: cell-based; details: HEK-293, CHIP-G132N, three independent transfections, p = 0.2114 vs. Δ with CHIP-WT, Fig. 1E
Method: (§3) HEK293 and COS-7 cells were acquired from the UNC Lineberger Comprehensive Cancer Center Tissue Culture Facility. Cultures were maintained in Dulbecco’s Modified Eagle Medium with 10% fetal bovine serum at 37 °C and 5% CO2. Using the manufacturers’ instructions, X-tremeGENE 9 was used to transfect cells with plasmid DNA except for NanoBiT constructs, in which case we used Lipofectamine 3000 (Thermo Fisher Scientific). Where indicated, twenty-four hours post-transfection, cells were treated with 20 μM MG-132 (Selleck Chemicals) for 6 h or 100 μM cycloheximide (Sigma-Aldrich) for the stated duration.
(§4) NanoBiT Protein: Protein Interaction System (Promega) was used to measure protein-protein interaction data following the manufacturer’s instructions. As previously described, LgBiT-HSP70 and SmBiT-CHIP construct interactions were used as positive controls ([22]). Twenty-four hours post-transfection, the cells were collected, replated in 96-well clear bottom white-sided tissue culture plates, and maintained at 37 °C and 5% CO2 for 45 min. Nano-Glo Live Cell Reagent (Promega) was added, and luminescence was measured using a CLARIOstar microplate reader over 20 minutes. The total area under the maximum luminescence curve was quantified and used to compare changes in HSP70-CHIP interactions relative to the WT-WT conditions.

[7] = system: HSP70 steady-state levels in COS-7 cells; experiment: Cycloheximide chase of HSP70 steady-state levels, COS-7; assay type: cell-based
Method: as §3
(§5) Samples were collected in a lysis buffer composed of 50 mM Tris-HCl (pH 7.4), 150 mM NaCl, 2 mM EDTA, and 1% Triton X-100, supplemented with 1X Halt protease and phosphatase inhibitor (Thermo Scientific). The samples were then sonicated and combined with Laemmli sample buffer (Bio-Rad). The lysates were resolved on 4–15% TGX Stain-Free gels (Bio-Rad) and transferred to PVDF membranes (Bio-Rad). The membranes were blocked in 5% milk and incubated with primary antibodies (Table S3) overnight at 4°C. Following this, HRP-conjugated secondary antibodies (Cell Signaling Technology) were applied. Detection was performed using Lumigen ECL Ultra (Lumigen, tma-100), and the blots were imaged with the ChemiDoc Imaging System (BioRad).

[8] = system: HSP70 steady-state levels in HEK-293 cells; experiment: Cycloheximide chase of HSP70 steady-state levels, HEK-293; assay type: cell-based; details: Flag immunoblot, representative, Fig. S1
Method: as §3, §5

[9] = system: SmBiT-CHIP-G132N; experiment: NanoBiT live-cell interaction, COS-7, SmBiT-CHIP-G132N; assay type: cell-based; details: COS-7, CHIP-G132N, three independent transfections, Fig. 1F
Method: as §3, §4

[10] = system: SmBiT-CHIP-WT; experiment: NanoBiT live-cell interaction, COS-7, SmBiT-CHIP-WT; assay type: cell-based; details: COS-7, CHIP-WT, three independent transfections, Fig. 1F
Method: as §3, §4

[11] = biological target: T3, CHIP-WT (Homo sapiens, UniProt Q9UNE7); experiment: Co-immunoprecipitation of HSP70 with CHIP-WT, COS-7; assay type: cell-based; details: Co-IP of MYC-CHIP-WT, vs HSP70-WT and HSP70-T636A, densitometry, Fig. 1I
T3 construct: His; made in house
T3 sequence (Q9UNE7 1-303): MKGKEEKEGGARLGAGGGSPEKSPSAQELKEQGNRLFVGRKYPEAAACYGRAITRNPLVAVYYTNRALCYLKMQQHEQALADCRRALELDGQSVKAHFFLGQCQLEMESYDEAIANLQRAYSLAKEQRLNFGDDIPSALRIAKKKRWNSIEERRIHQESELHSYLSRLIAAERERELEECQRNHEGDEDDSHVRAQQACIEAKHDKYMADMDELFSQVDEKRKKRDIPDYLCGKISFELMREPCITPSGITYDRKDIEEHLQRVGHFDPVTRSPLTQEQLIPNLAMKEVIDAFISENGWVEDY
Method: as §5
Ezview™ Red Anti-c-Myc Affinity Gel Beads (Sigma-Aldrich) were used for co-immunoprecipitation of myc-tagged proteins. Proteins were eluted via boiling before western blot analysis.

[12] = system: SmBiT-CHIP-WT; experiment: NanoBiT live-cell interaction, HEK-293, SmBiT-CHIP-WT; assay type: cell-based; details: HEK-293, CHIP-WT, luminescence over 20 min, three independent transfections, Fig. 1E
Method: as §3, §4

[13] = system: HEK-293 cells; details: HEK-293, electrical impedance; ref [16]; cited from earlier work

In the case of “N-FITC-Ahx-GSGP(pT)IEEVD [pEEVD, phosphorylated HSP70 tail peptide used for fluorescent polarization]”, the “association rate” value [1] is reported as “higher association rates”, the “decrease in binding affinity of CHIP TPR towards the phosphorylated EEVD tail” value [2] is reported as roughly 10 fold and the “decrease in interaction compared to the unmodified threonine” value [3] is reported as 6–10 fold.

For “N-FITC-Ahx-GSGPTIEEVD [unphosphorylated HSP70 tail peptide used for fluorescent polarization]”, the “EEVD tail peptide interaction with U-box moved closer to TPR” value [4] was “eliminated EEVD tail peptide interactions” and the “EEVD tail interaction, effect of the coiled-coil domain” value [5] was “minimal change”.

In the case of “HSP70-T636D: phospho-mimetic version of HSP70”, the “decrease in luminescence compared to HSP70-T636A” value [6] is reported as 57%, the “loss of HSP70 steady-state level after inhibiting translation” value ([7]; cycloheximide 100 μM, six hours, change from time 0, representative immunoblot, Fig. 1J) is reported as 76% and the “HSP70 steady-state level after cycloheximide” value ([7]; cycloheximide, six hours, compared to HSP70-WT and HSP70-T636A, Fig. 1J) is reported as “more robust decreases”. For the same substance, the “HSP70 steady-state level with proteasome inhibitor” value ([7]; with MG-132, Fig. 1J) was “recovery of protein levels”, the “percent change of HSP70 level from time 0” value ([8]; cycloheximide +MG132, 6 h (column from layout)) was “+98%” and the “percent change of HSP70 level from time 0” value ([8]; cycloheximide, 6 h, without MG132 (column from layout)) was -80%. For the same substance, the “Δ luminescence comparing HSP70-T636D to HSP70-T636A” value [9] was −66%, the “Δ luminescence comparing HSP70-T636D to HSP70-T636A” value [10] was −85% and the “reduction of HSP70 co-precipitated by CHIP-WT” value [11] was “over 90%”. The “decrease in luminescence compared to HSP70-T636A” value [12] was 42% and the “effect on cell growth / proliferation” value [13] was “no effect”.
